From US8580579B2, “Hydrophilic and lipophilic rhodamines for labelling and imaging” (Max-Planck-Gesellschaft zur Foerderung der Wissenschaften …, priority 2009, dated 2013)
Entries after “also recorded” stand apart in the source; their conditions may differ. Like-named read-outs stand apart in the source and are kept apart here.

Assays:
[1] = cited from earlier work; for Φfl: no solvent given in the cell
[2] = cited from earlier work
[3] = Solubility and polarity of the dyes
[4] = Fluorescence quantum yield, Atto 633 as reference; assay type: physicochemical; conditions: Atto 633 as reference (Φfl = 64% in aqueous buffer)
Excerpt: Moreover, intersystem crossing rates (kISC) and rates of the T1→S0 transitions were also found to be the same for both deuterated and undeuterated substances (see ref. to Table 2).

[5] = UV-visible absorption and fluorescence spectra of the dyes of the invention; assay type: physicochemical; conditions: for ε · 10^−5 / λmax (abs.) / λmax (fl.): solvent MeOH
Description: UV-visible absorption spectra were recorded on a Varian Cary 4000 UV-Vis spectrophotometer, and fluorescence spectra on a Varian Cary Eclipse fluorescence spectrophotometer. Reactions were carried out upon magnetic stirring in Schlenk flasks equipped with septa or reflux condensers with bubble-counters under argon using a standard manifold with vacuum and argon lines. All NMR spectra are referenced to tetramethylsilane as an internal standard (δ=0 ppm) using the signals of the residual protons of CHCl3 (7.26 ppm) in CDCl3, CHD2OD (3.31 ppm) in CD3OD, HOD (4.75 ppm) in D2O, [D5]acetone (2.04 ppm) in [D6]acetone or [D5]DMSO (2.50 ppm) in [D6]DMSO. Multiplicities of signals are described as follows: s=singlet, br. s=broad singlet, d=doublet, t=triplet, q=quartet, quint=quintet, m=multiplet, mc=centrosymmetrical multiplet. Coupling constants (J) are given in Hz. Multiplicities in the ^13C NMR spectra were determined by APT (Attached Proton Test) measurements. Low resolution mass spectra (electro spray ionization, ESI) were obtained with LCQ and ESI-TOF mass-spectrometers (MICROTOF (focus), Fa. Bruker). The MICROTOF spectrometer equipped with ESI ion source Apollo and direct injector with LC autosampler Agilent RR 1200 was used for obtaining high resolution mass spectra (ESI-HRMS). ESI-HRMS were obtained also on APEX IV spectrometer (Bruker). HPLC system (Knauer): Smartline pump 1000 (2×), UV detector 2500, column thermostat 4000 (25° C.), mixing chamber, injection valve with 20 and 100 μL loop for the analytical and preparative columns, respectively; 6-port-3-channel switching valve; analytical column: Eurospher-100 C18, 5 μm, 250×4 mm, 1.1 mL/min; preparative column: Eurospher-100-5 C18, 5 μm, 250×8 mm, 3.7 mL/min; solvent A: water+0.1% v/v trifluoroacetic acid (TFA); solvent B: MeCN+0.1% v/v TFA; detection at 636 nm (if not stated otherwise). Normal phase analytical TLC was performed on MERCK ready-to-use plates with silica gel 60 (F254) and reversed phase TLC—on RP-18W/UV254 precoated TLC plates (Macherey-Nagel). Preparative TLC was performed on MERCK HPTLC silica gel 60 plates (10×10 cm, layer thickness 0.2 mm). Column chromatography: MERCK silica gel, grade 60, 0.04-0.063 mm or Polygoprep 60-50 C18 (Macherey-Nagel).

[6] = Chemical and storage stability of dyes and reactive derivatives; assay type: physicochemical; conditions: for chemical stability of the active ester: isolation and storage; for stability in a solid state: under Ar
Excerpt: Usually, amino- or thiol reactive derivatives of the fluorescent dyes are used for labelling of proteins. For conjugation with amines, the free carboxy group needs to be activated by the formation of N-hydroxy(sulfo)succinimidyl esters, phenyl esters with electron-acceptor groups in the benzene ring or similar compounds with good leaving groups. […] Ester 8 partly decomposed in the course of chromatographic isolation using silica gel. Therefore, the reaction mixture containing the active ester 8 was used for labelling the lipids in their non-polar domain and other coupling procedures. […] They were isolated by reversed-phase HPLC using the gradient elution with aqueous acetonitrile with 0.1% (v/v) of TFA, lyophilized and stored at −20° C. under argon. Under these conditions, the content of the corresponding acids 6/6D in the very light dark blue voluminous solids increased from 3-5% up to 7-10% in 2 months. The higher stability of the NHS esters 9 and 10 may be explained by the absence of any nucleophilic counter ion. The maleimide derivative 11 has been prepared straight from compounds 9 and 10 by combining them in DMF with Et3N as base. It was also isolated by HPLC.

[7] = as above; assay type: physicochemical

SMILES: O=C(O)CCCCCNC(=O)COc1ccc(/C=C/C2=[N+]3C(=Cc4ccc(-c5cccs5)n4[B-]3(F)F)C=C2)cc1 [BODIPY ® 630/650]
- τfl ([1]; EtOH): 4.4 (EtOH)^1 ns
- τfl ([1]; H2O): 3.9 (H2O) ns
- Φfl [1]: “good”
- ε · 10^−5 ([1]; solvent MeOH): 1.01 M^−1 cm^−1
- λmax (abs.) ([1]; solvent MeOH): 625 nm
- λmax (fl.) ([1]; solvent MeOH): 640 nm
- Solubility (solvents) [2]: DMSO, MeCN

SMILES: CC1=CC(C)(C)N2CCCc3c4c(cc1c32)C(c1c(F)c(F)c(F)c(F)c1C(=O)N(C)CCC(=O)O)=c1cc2c3c(c1O4)CCC[N+]=3C(C)(C)C=C2C [Compound 5-H]
- Solubility (solvents) [3]: DMF, THF, CHCl3;
- polarity [3]: non-polar
- solubility in organic solvents [3]: moderately soluble in polar organic solvents; also recorded: very good
- solubility in water or aqueous buffers [3]: very slightly soluble in water
- Φfl in water [4]: 53%
- Stokes shift ([5]; dyes of the invention): 23 nm
- ε · 10^−5 [5]: 0.73 M^−1 cm^−1
- λmax (abs.) [5]: 638 nm
- λmax (fl.) [5]: 661.5 nm

SMILES: COC(=O)CCN(C)C(=O)c1c(F)c(F)c(F)c(F)c1C1=c2cc3c4c(c2Oc2c1cc1c5c2CCCN5C(C)(C)C=C1C)CCC[N+]=4C(C)(C)C=C3C [Compound 5-Me]
- Solubility (solvents) [3]: DMF, THF, CHCl3;
- polarity [3]: non-polar
- solubility in organic solvents [3]: soluble in most organic solvents (except alkanes)
- solubility in water or aqueous buffers [3]: insoluble in water
- Φfl in water [4]: 62%
- ε · 10^−5 [5]: 0.66 M^−1 cm^−1
- λmax (abs.) [5]: 638 nm
- λmax (fl.) [5]: 661.5 nm

SMILES: CC1=CC(C)(C)N2CCCc3c4c(cc1c32)C(c1c(F)c(F)c(F)c(F)c1C(=O)N(C)CCC(=O)OC(C)(C)C)=c1cc2c3c(c1O4)CCC[N+]=3C(C)(C)C=C2C [Compound 5-tBu]
- Solubility (solvents) [3]: DMF, THF, CHCl3;
- polarity [3]: non-polar
- solubility in organic solvents [3]: soluble in most organic solvents (except alkanes)
- solubility in water or aqueous buffers [3]: insoluble in water
- Φfl in water [4]: 61%
- ε · 10^−5 [5]: 0.92 M^−1 cm^−1
- λmax (abs.) [5]: 638 nm
- λmax (fl.) [5]: 661 nm

SMILES: COC(=O)c1c(F)c(F)c(F)c(F)c1C1=c2cc3c4c(c2Oc2c1cc1c5c2CCCN5C(C)(C)C=C1C)CCC[N+]=4C(C)(C)C=C3 [Compound 7]
- Solubility (solvents) [3]: CHCl3, THF
- polarity [3]: non-polar
- λmax (abs.) [5]: 632 nm
- λmax (fl.) [5]: 655.5 nm

SMILES: CC1=CC(C)(C)N2CCCc3c4c(cc1c32)C(c1c(F)c(F)c(F)c(F)c1C(=O)N(C)CCC(=O)Oc1c(F)c(F)cc(F)c1F)=c1cc2c3c(c1O4)CCC[N+]=3C(C)(C)C=C2C [Compound 8]
- chemical stability of the active ester [6]: Low chemical stability

SMILES: CN(CCC(=O)ON1C(=O)CCC1=O)C(=O)c1c(F)c(F)c(F)c(F)c1C1=c2cc3c4c(c2Oc2c1cc1c5c2CCCN5C(C)(C)C=C1CS(=O)(=O)O)CCC[N+]=4C(C)(C)C=C3CS(=O)(=O)[O-] [Compound 9]
- chemical stability of the active ester [6]: remarkably stable
- stability in a solid state [6]: stable
- stability in aqueous solutions ([7]; at RT): decomposes
- solubility in water or aqueous buffers [3]: soluble in water

SMILES: CN(CCC(=O)NCCN1C(=O)C=CC1=O)C(=O)c1c(F)c(F)c(F)c(F)c1C1=c2cc3c4c(c2Oc2c1cc1c5c2CCCN5C(C)(C)C=C1CS(=O)(=O)O)CCC[N+]=4C(C)(C)C=C3CS(=O)(=O)O [Compound 11]
- stability in a solid state [6]: stable
- stability in methanol or methanol-containing solutions [7]: decomposes; also recorded: sensitive to methanol even at room temperature
- solubility in water or aqueous buffers [3]: soluble in water

SMILES: CCN(CC)c1ccc2c(C=CC=C3N(CCCCCC(=O)O)c4ccc(S(=O)(=O)[O-])cc4C3(C)C)cc(C(C)(C)C)[o+]c2c1 [DY-630]
- τfl ([1]; H2O): 0.21 ns
- Φfl [1]: Varies^6
- ε · 10^−5 ([1]; solvent EtOH): 2.0 M^−1 cm^−1
- λmax (abs.) ([1]; solvent EtOH): 636 nm
- λmax (fl.) ([1]; solvent EtOH): 657 nm
- λmax (abs.) ([1]; solvent H2O): 627^1 nm
- λmax (fl.) ([1]; solvent H2O): 651^1 nm
- Solubility (solvents) [2]: MeOH, EtOH,; also recorded: DMF, DMSO

SMILES: CC[N+](CC)=c1ccc2c(/C=C/C=C3/N(CCCS(=O)(=O)[O-])c4ccc(S(=O)(=O)[O-])cc4C3(C)CCCC(=O)O)cc(C(C)(C)C)oc-2c1.[Na+] (centres unmarked) [DY-631]
- ε · 10^−5 ([1]; solvent EtOH): 2.0 M^−1 cm^−1
- Solubility (solvents) [2]: H2O, MeOH,; also recorded: DMF, DMSO

SMILES: CC[N+](CCCS(=O)(=O)[O-])=c1ccc2c(C=CC=C3N(CCCCCC(=O)O)c4ccc(S(=O)(=O)[O-])cc4C3(C)C)cc(C(C)(C)C)oc-2c1.[Na+] [DY-633]
- ε · 10^−5 ([1]; solvent EtOH): 2.0 M^−1 cm^−1
- Solubility (solvents) [2]: H2O, MeOH,; also recorded: DMF, DMSO

SMILES: CC(C)(C)c1cc(C=CC=C2N(CCCC(=O)O)c3ccc(S(=O)(=O)[O-])cc3C2(C)CCCS(=O)(=O)[O-])c2ccc(=[N+](CCCS(=O)(=O)[O-])CCCS(=O)(=O)[O-])cc-2o1.[Na+].[Na+].[Na+] (centres unmarked) [DY-634]
- ε · 10^−5 ([1]; solvent EtOH): 2.0 M^−1 cm^−1
- Solubility (solvents) [2]: H2O, MeOH,; also recorded: DMF, DMSO

SMILES: CC(C)(C)c1cc(C=CC=C2N(CCCCCC(=O)O)c3ccc(S(=O)(=O)[O-])cc3C2(C)C)c2cc3c4c(c2[o+]1)CCCN4CCC3 [DY-635]
- τfl ([1]; H2O): 0.48 ns
- ε · 10^−5 ([1]; solvent EtOH): 2.0 M^−1 cm^−1
- λmax (abs.) ([1]; solvent EtOH): 647 nm
- λmax (fl.) ([1]; solvent EtOH): 671 nm
- λmax (abs.) ([1]; solvent H2O): 635^1 nm
- λmax (fl.) ([1]; solvent H2O): 669^1 nm
- Solubility (solvents) [2]: MeOH, EtOH,; also recorded: DMF, DMSO

SMILES: CC(C)(C)C1=CC(=CC=CC2=[N+](CCCS(=O)(=O)[O-])c3ccc(S(=O)(=O)[O-])cc3C2(C)CCCC(=O)O)c2cc3c4c(c2O1)CCCN4CCC3.[Na+] (centres unmarked) [DY-636]
- ε · 10^−5 ([1]; solvent EtOH): 2.0 M^−1 cm^−1
- λmax (abs.) ([1]; solvent EtOH): 645 nm
- λmax (fl.) ([1]; solvent EtOH): 671 nm
- Solubility (solvents) [2]: H2O, EtOH,; also recorded: DMF, DMSO

SMILES: CCN1c2cc3[o+]c(C(C)(C)C)cc(C=CC=C4N(CCCCCC(=O)O)c5ccc(S(=O)(=O)[O-])cc5C4(C)C)c3cc2C(C)=CC1(C)C [DY-650]
- τfl ([1]; H2O): 0.64 (H2O)^1 ns
- ε · 10^−5 ([1]; solvent EtOH): 2.2 M^−1 cm^−1
- λmax (abs.) ([1]; solvent EtOH): 653 nm
- λmax (fl.) ([1]; solvent EtOH): 674 nm
- λmax (abs.) ([1]; solvent H2O): 646^1 nm
- λmax (fl.) ([1]; solvent H2O): 670 nm
- Solubility (solvents) [2]: MeOH, EtOH,; also recorded: DMF, DMSO

SMILES: CCN(CCCS(=O)(=O)[O-])c1ccc2nc3ccc(=[N+](C)CCC(=O)O)cc-3oc2c1 [Evoblue 30]
- τfl ([1]; H2O): 0.64 (H2O)^1 ns
- ε · 10^−5 ([1]; solvent EtOH): 1.0 M^−1 cm^−1
- λmax (abs.) ([1]; solvent EtOH): 647 nm
- λmax (fl.) ([1]; solvent EtOH): 664 nm
- λmax (abs.) ([1]; solvent H2O): 650^1 nm
- λmax (fl.) ([1]; solvent H2O): 667^1 nm
- Solubility (solvents) [2]: H2O, MeOH,; also recorded: DMF, DMSO
